Results from patent publication US20240174727A1, “LONG-ACTING NATRIURETIC PEPTIDES AND USES THEREOF” (Eli Lilly and Company, priority 2022, published 2024).
Where two headings read alike, the source gives them in different places. Numbered stars: 1 amine (or outer) side, 2 acyl side, 3 side chain; on linkers, the order of the positions; unused ones are H or OH. Bridge positions count the residues as written; N and C are the ends. Square brackets hold non-standard residues; d marks the D form. Peptide text beside a SMILES is read from it. * marks the point of attachment. PEG24 = NCCOCCOCCOCCOCCOCCOCCOCCOCCOCCOCCOCCOCCOCCOCCOCCOCCOCCOCCOCCOCCOCCOCCOCCOCCC(=O)O; C20 diacid = O=C(O)CCCCCCCCCCCCCCCCCCC(=O)*; γGlu = O=C(O)[C@H](CCC(=O)[*:2])N[*:1]; 4Pal = N[C@@H](Cc1ccncc1)C(=O)O; Aib = CC(C)(N)C(=O)O; CH2 = C([*:1])[*:2]; βAla = NCCC(=O)O

Biological target: T1, human NPRA (Homo sapiens, UniProt P16066)
T1 construct: Full-Length cDNA Cloning and Generation of Cell Lines Overexpressing Natriuretic Peptide Receptors (NPRs); expressed in transfected cells; host or cells: Jump-in T-Rex HEK293 cells, pJTI R4 CMV-TO MCS pA vector, tetracycline induction
T1 sequence (P16066 33-1061): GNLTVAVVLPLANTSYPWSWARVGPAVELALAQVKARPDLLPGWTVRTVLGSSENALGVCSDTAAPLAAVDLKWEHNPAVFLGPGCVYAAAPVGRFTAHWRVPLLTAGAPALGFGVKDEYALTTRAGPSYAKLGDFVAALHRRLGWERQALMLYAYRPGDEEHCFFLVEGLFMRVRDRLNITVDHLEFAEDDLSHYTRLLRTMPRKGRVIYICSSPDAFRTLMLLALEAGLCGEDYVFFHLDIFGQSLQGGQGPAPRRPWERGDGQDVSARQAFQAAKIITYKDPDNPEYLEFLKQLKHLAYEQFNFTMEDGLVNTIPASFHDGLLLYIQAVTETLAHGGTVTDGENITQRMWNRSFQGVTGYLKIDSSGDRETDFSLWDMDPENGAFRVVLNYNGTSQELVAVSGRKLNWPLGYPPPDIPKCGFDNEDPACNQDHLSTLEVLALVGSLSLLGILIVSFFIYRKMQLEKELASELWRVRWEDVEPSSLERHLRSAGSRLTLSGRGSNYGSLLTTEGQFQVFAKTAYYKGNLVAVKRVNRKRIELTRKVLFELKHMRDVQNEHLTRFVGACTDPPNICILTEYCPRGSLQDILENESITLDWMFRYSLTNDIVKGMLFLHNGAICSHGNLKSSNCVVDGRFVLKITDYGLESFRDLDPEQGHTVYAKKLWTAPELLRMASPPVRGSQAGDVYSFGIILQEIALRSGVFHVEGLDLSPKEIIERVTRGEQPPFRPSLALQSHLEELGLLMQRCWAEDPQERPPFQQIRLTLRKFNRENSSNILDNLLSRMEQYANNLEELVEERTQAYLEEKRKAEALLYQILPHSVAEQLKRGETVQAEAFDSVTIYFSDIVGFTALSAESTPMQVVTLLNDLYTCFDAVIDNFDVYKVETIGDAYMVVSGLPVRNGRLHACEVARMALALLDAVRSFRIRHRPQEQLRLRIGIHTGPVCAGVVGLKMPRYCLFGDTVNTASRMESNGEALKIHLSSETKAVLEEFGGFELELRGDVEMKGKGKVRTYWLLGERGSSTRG
Assay: Human NPRA cGMP activity assay (HTRF) in HEK293 cells overexpressing NPRA
Type: cell-based
Description: All sequences were verified by full-length sequencing performed by ACGT DNA Sequencing Services (Wheeling, IL). The target cDNA was cloned into pJTI R4 CMV-TO MCS pA vector and then co-transfected with pJT1R4 Int vector into Jump-in™ T-Rex™ HEK293 cells for mammalian inducible expression using Jump-in™ T-Rex™ HEK293 kit and Lipofectamine LTX and Plus Reagent following manufacturer's protocols, as briefly described below.
Jump-in™ T-Rex™ HEK293 cells were plated in a BioCOAT® poly-D-lysine coated 6-well plate (Becton Dickinson, cat no. 354413) at 1 million cells/well in 2 mL culture medium and incubated for 18 h at 37° C. and 5% CO2 to 50-70% confluence. A cDNA mix was made in a 50 mL tube by adding 1.5 μg target cDNA, 1.5 μg pJT1R4 Int vector, 3 μL Plus Reagent, and 300 μL Opti-MEM I sequentially into the tube. A reagent mix was made in a separate 50 mL tube by adding 7.5 μL Lipofectamine LTX into 300 μL Opti-MEM I. The mixtures were incubated for 5 min at room temperature. The cDNA mix was then transferred into the reagent mix, mixed well, and incubated for additional 30 min at room temperature. A 500 μL of cDNA/Lipofectamine complex was then transferred to the wells of the cell plate in which the culture medium was changed to 2 mL of transfection medium containing DMEM with 4.5 g/L D-glucose supplemented with 10% FBS-HI and 20 mM HEPES. Transfected cells were cultured for 48 h in an incubator at 37° C. and 5% CO2. A subclone or pool from each overexpressing cell line was maintained in culture medium with the addition of 2 mg/mL G418 sulfate for the clone selection based on its built-in resistance to G418 sulfate for at least 3 weeks with medium changed every 2-3 days.
NPRs were overexpressed in T-Rex™ HEK293 cells following the induction with 300 ng/mL tetracycline in culture medium for 48 h. Induced cell lines in an exponential growth phase were treated with 0.05% trypsin-EDTA for a few seconds at room temperature, harvested in cell medium containing FBS to neutralize the trypsin, counted, and cryopreserved at the density of 2 million cells/mL in cell preservation solution containing FBS-HI with 5% DMSO. Cryopreserved cells were stored at −80° C. for a few days prior to transferring to a liquid nitrogen tank. Induced cell lines were then used for suspension assays to measure the activity of polypeptides to stimulate cGMP production in cGMP assays or for the preparation of cell membranes to measure the binding activity of polypeptides in competitive radioligand binding assays, as described below.
Test polypeptides were added starting at 10 μM concentration and at 10-fold decreasing concentrations to obtain 8-point concentration-response curves (i.e., 10 μM to 1 pM). The quantity of cGMP generated was detected using HTRF® technology and normalized to maximum amount produced by 100 nM amidated rat ANP and the minimum amount produced by assay buffer. Detailed steps are outlined below.
Stock solutions of test polypeptides (2 mM) dissolved in DMSO were first diluted 100-fold in assay buffer containing HBSS with Ca^2+ and Mg^2+, 5 mM HEPES, 0.5 mM IBMX, and 0.1% BSA or 0.1% casein (pH 7.4). The polypeptides were further serially diluted in 1:10 dilution steps in assay buffer containing 0.1% BSA or 0.1% casein to generate 8-point 2× working stock solutions ranging from 20 μM to […].
A 10 μL cell suspension containing 4000 cells was plated in Costar® half-area white opaque 96-well plates (Corning, cat no. 3693). Then 10 μL of assay buffer (basal activity), 200 nM of amidated rat ANP (maximum activity) or 2× working stock solutions of test polypeptides were transferred into the plate. Final concentration of DMSO in each well was 0.5%. The plate was shaken for 15 sec and then incubated for 40 min at room temperature.
The cGMP generated was measured using cGMP kit following the manufacturer's directions, as described below.

[1] = cGMP Assay (EC50, pM) w/Casein hNPRA, assay buffer with 0.1% casein
[2] = assay buffer with 0.1% BSA, read-out: cGMP Assay (EC50, pM) w/BSA hNPRA
[3] = assay buffer with 0.1% casein, read-out: cGMP Assay (EC50, pM) w/Casein hNPRA

Row | Compound | EC50 [1] [pM] | EC50 [3] [pM] | other results
1 | {C20 diacid-γGlu}-EKEKEKGEK[βAla]RSSCFGGRIDRIGHYSGLGCPSLRHGGPSSGAPPPS-NH2 (linker 14-30 via CH2) [Example 63] | 1090 | – | –
2 | {C20 diacid-γGlu}-EKEKEKGS[4Pal]RRSSCFGGRIDRIGHQSGLGCPSFRHGGPPS[Aib]KPPPK-NH2 (linker 14-30 via CH2) [Example 68] | – | – | EC50 [2]: 96800 pM
3 | {C20 diacid-γGlu}-EKEKEKGEKGRSSCFGGRIDRIGHYSGLGCPSLRHGGPSSGAPPPS-NH2 (disulfide 14-30) [Example 51] | 361 | – | –
4 | CC[C@H](C)[C@@H]1NC(=O)[C@H](CCCNC(=N)N)NC(=O)[C@H](CC(=O)O)NC(=O)[C@H]([C@@H](C)CC)NC(=O)[C@H](CCCNC(=N)N)NC(=O)CNC(=O)CNC(=O)[C@H](Cc2ccccc2)NC(=O)[C@@H](NC(=O)[C@H](CO)NC(=O)[C@H](CO)NC(=O)[C@H](CCCNC(=N)N)NC(=O)[C@H](CCCNC(=N)N)NC(=O)[C@H](Cc2c[nH]cn2)NC(=O)[C@H](CO)NC(=O)CNC(=O)[C@H](CCCCN)NC(=O)[C@H](CCC(=O)O)NC(=O)[C@H](CCCCN)NC(=O)[C@H](CCC(=O)O)NC(=O)[C@H](CCCCN)NC(=O)[C@H](CCC(=O)O)NC(=O)CC[C@H](NC(=O)CCCCCCCCCCCCCCCCCCC(=O)O)C(=O)O)CSSC[C@@H](C(=O)N2CCC[C@H]2C(=O)N[C@@H](CO)C(=O)N[C@@H](Cc2ccccc2)C(=O)N[C@@H](CCCNC(=N)N)C(=O)N[C@@H](Cc2c[nH]cn2)C(N)=O)NC(=O)CNC(=O)[C@H](CC(C)C)NC(=O)CNC(=O)[C@H](CO)NC(=O)[C@H](CCC(N)=O)NC(=O)[C@H](C)NC(=O)CNC1=O [Example 18] ({C20 diacid-γGlu}-EKEKEKGSHRRSSCFGGRIDRIGAQSGLGCPSFRH-NH2; disulfide 14-30) | – | 460 | –
5 | CC[C@H](C)[C@@H]1NC(=O)[C@H](CCCNC(=N)N)NC(=O)[C@H](CC(=O)O)NC(=O)[C@H]([C@@H](C)CC)NC(=O)[C@H](CCCNC(=N)N)NC(=O)CNC(=O)CNC(=O)[C@H](Cc2ccccc2)NC(=O)[C@@H](NC(=O)[C@H](CO)NC(=O)[C@H](CO)NC(=O)[C@H](CCCNC(=N)N)NC(=O)[C@H](CCCNC(=N)N)NC(=O)[C@H](Cc2ccncc2)NC(=O)[C@H](CO)NC(=O)CNC(=O)[C@H](CCCCN)NC(=O)[C@H](CCC(=O)O)NC(=O)[C@H](CCCCN)NC(=O)[C@H](CCC(=O)O)NC(=O)[C@H](CCCCN)NC(=O)[C@H](CCC(=O)O)NC(=O)CC[C@H](NC(=O)CCCCCCCCCCCCCCCCCCC(=O)O)C(=O)O)CSSC[C@@H](C(=O)N[C@@H](CC(N)=O)C(=O)N[C@@H](CO)C(=O)N[C@@H](Cc2ccccc2)C(=O)N[C@@H](CCCNC(=N)N)C(=O)N[C@@H](Cc2ccncc2)C(N)=O)NC(=O)CNC(=O)[C@H](CC(C)C)NC(=O)CNC(=O)[C@H](CO)NC(=O)[C@H](CCC(N)=O)NC(=O)[C@H](C)NC(=O)CNC1=O [Example 15] ({C20 diacid-γGlu}-EKEKEKGS[4Pal]RRSSCFGGRIDRIGAQSGLGCNSFR[4Pal]-NH2; disulfide 14-30) | – | 912 | –
6 | CC[C@H](C)[C@@H]1NC(=O)[C@H](CCCNC(=N)N)NC(=O)[C@H](CC(=O)O)NC(=O)[C@H]([C@@H](C)CC)NC(=O)[C@H](CCCNC(=N)N)NC(=O)CNC(=O)CNC(=O)[C@H](Cc2ccccc2)NC(=O)[C@@H](NC(=O)[C@H](CO)NC(=O)[C@H](CO)NC(=O)[C@H](CCCNC(=N)N)NC(=O)[C@H](CCCNC(=N)N)NC(=O)[C@H](CC(C)C)NC(=O)[C@H](CO)NC(=O)CNC(=O)[C@H](CCCCN)NC(=O)[C@H](CCC(=O)O)NC(=O)[C@H](CCCCN)NC(=O)[C@H](CCC(=O)O)NC(=O)[C@H](CCCCN)NC(=O)[C@H](CCC(=O)O)NC(=O)CC[C@H](NC(=O)CCCCCCCCCCCCCCCCCCC(=O)O)C(=O)O)CSSC[C@@H](C(=O)N[C@@H](CC(N)=O)C(=O)N[C@@H](CO)C(=O)N[C@@H](Cc2ccccc2)C(=O)N[C@@H](CCCNC(=N)N)C(=O)N[C@@H](Cc2ccncc2)C(N)=O)NC(=O)CNC(=O)[C@H](CC(C)C)NC(=O)CNC(=O)[C@H](CO)NC(=O)[C@H](CCC(N)=O)NC(=O)[C@H](C)NC(=O)CNC1=O [Example 9] ({C20 diacid-γGlu}-EKEKEKGSLRRSSCFGGRIDRIGAQSGLGCNSFR[4Pal]-NH2; disulfide 14-30) | – | – | EC50 [2]: 101000 pM
7 | {C20 diacid-γGlu}-EKEKEKG[PEG24]S[4Pal]RRSSCFGGRIDRIGHQSGLGCPSFRHGGPPS[Aib]KPPPK-NH2 (linker 15-31 via CH2) [Example 84] | – | 1010 | –
8 | CC[C@H](C)[C@@H]1NC(=O)[C@H](CCCNC(=N)N)NC(=O)[C@H](CC(=O)O)NC(=O)[C@H]([C@@H](C)CC)NC(=O)[C@H](CCCNC(=N)N)NC(=O)CNC(=O)CNC(=O)[C@H](Cc2ccccc2)NC(=O)[C@@H](NC(=O)[C@H](CO)NC(=O)[C@H](CO)NC(=O)[C@H](CCCNC(=N)N)NC(=O)[C@H](CCCNC(=N)N)NC(=O)[C@H](Cc2ccncc2)NC(=O)[C@H](CO)NC(=O)CNC(=O)[C@H](CCCCN)NC(=O)[C@H](CCC(=O)O)NC(=O)[C@H](CCCCN)NC(=O)[C@H](CCC(=O)O)NC(=O)[C@H](CCCCN)NC(=O)[C@H](CCC(=O)O)NC(=O)CC[C@H](NC(=O)CCCCCCCCCCCCCCCCCCC(=O)O)C(=O)O)CSCSC[C@@H](C(=O)N2CCC[C@H]2C(=O)N[C@@H](CO)C(=O)N[C@@H](Cc2ccccc2)C(=O)N[C@@H](CCCNC(=N)N)C(=O)N[C@@H](Cc2c[nH]cn2)C(=O)NCC(=O)NCC(=O)N2CCC[C@H]2C(=O)N[C@@H](CO)C(=O)N[C@@H](CO)C(=O)NCC(=O)N[C@@H](C)C(=O)N2CCC[C@H]2C(=O)N2CCC[C@H]2C(=O)N2CCC[C@H]2C(=O)N[C@@H](CO)C(N)=O)NC(=O)CNC(=O)[C@H](CC(C)C)NC(=O)CNC(=O)[C@H](CO)NC(=O)[C@H](CCC(N)=O)NC(=O)[C@H](Cc2c[nH]cn2)NC(=O)CNC1=O [Example 2] | 1020 | – | –
